Values after ≈ are worked out from the molar mass of the structure shown. Active and inactive are the calls of the source. The rule behind the calls is not given here.
What was measured:
Hep 3B2 = experiment: (§1) Cytotoxicity against human Hep3B cells by MTT assay; assay type: functional, cell-based
MCF7 = experiment: Cytotoxicity against human MCF7 cells by MTT assay; assay type: functional, cell-based
HT-29 = experiment: Cytotoxicity against human HT-29 cells by MTT assay; assay type: functional, cell-based
[1] = as §1; assay type: functional, cell-based, Hep 3B2

Compound	Activity (Hep 3B2)	Activity (MCF7)	Activity (HT-29)	IC50 [1] [µg/mL]	IC50 (MCF7) [µg/mL]	IC50 (HT-29) [µg/mL]	IC60 (HT-29) [µg/mL]
C=C(C)CC[C@@H](CC=C(C)C)[C@@H](C(=C)C)[C@](C)(CC=C(C)C)C(=O)c1cccc(O)c1	inactive	inactive	inactive	–	–	–	–
C=C(C)CC[C@@H](C[C@@H]1C[C@]2(CC=C(C)C)C(=O)[C@@](C(=O)c3ccc(O)c(O)c3)(C(=O)C3=C2O[C@@H](C(C)(C)O)C3)C1(C)C)C(=C)C [GARCINIELLIPTONE FB]	–	–	–	6.3 (≈ 10.2 µM)	6.8 (≈ 11 µM)	11.2 (≈ 18.1 µM)	–
O=c1[nH]cc(F)c(=O)[nH]1 [FLUOROURACIL]	–	–	–	0.072 (≈ 0.554 µM)	0.0012 (≈ 0.00923 µM)	–	0.074 (≈ 0.569 µM)

Source: ChEMBL document CHEMBL1141761, “Constituents of the pericarp of Garcinia subelliptica” (J Nat Prod, 2005)
